# In ChEMBL document CHEMBL3991601, “The target landscape of clinical kinase drugs” (Science, 2017):
# The source made the active and inactive calls.
# Tests used:
# [1] = molecular target: T1, Phosphorylase b kinase gamma catalytic chain, liver/testis isoform (Homo sapiens, UniProt P15735)
# T1 sequence (P15735 whole entry): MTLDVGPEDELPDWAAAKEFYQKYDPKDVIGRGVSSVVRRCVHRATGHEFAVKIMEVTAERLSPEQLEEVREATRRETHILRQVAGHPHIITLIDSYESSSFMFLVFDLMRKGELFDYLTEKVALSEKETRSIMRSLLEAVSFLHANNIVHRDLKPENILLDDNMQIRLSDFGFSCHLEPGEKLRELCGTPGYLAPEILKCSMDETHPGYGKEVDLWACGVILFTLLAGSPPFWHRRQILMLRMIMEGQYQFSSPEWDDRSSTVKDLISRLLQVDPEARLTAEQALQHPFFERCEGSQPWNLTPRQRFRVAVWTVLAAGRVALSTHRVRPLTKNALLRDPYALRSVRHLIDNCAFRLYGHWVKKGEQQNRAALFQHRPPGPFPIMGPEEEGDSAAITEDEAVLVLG
# [2] = molecular target: T2, Serine/threonine-protein kinase TAO3 (Homo sapiens, UniProt Q9H2K8)
# T2 sequence (Q9H2K8 whole entry): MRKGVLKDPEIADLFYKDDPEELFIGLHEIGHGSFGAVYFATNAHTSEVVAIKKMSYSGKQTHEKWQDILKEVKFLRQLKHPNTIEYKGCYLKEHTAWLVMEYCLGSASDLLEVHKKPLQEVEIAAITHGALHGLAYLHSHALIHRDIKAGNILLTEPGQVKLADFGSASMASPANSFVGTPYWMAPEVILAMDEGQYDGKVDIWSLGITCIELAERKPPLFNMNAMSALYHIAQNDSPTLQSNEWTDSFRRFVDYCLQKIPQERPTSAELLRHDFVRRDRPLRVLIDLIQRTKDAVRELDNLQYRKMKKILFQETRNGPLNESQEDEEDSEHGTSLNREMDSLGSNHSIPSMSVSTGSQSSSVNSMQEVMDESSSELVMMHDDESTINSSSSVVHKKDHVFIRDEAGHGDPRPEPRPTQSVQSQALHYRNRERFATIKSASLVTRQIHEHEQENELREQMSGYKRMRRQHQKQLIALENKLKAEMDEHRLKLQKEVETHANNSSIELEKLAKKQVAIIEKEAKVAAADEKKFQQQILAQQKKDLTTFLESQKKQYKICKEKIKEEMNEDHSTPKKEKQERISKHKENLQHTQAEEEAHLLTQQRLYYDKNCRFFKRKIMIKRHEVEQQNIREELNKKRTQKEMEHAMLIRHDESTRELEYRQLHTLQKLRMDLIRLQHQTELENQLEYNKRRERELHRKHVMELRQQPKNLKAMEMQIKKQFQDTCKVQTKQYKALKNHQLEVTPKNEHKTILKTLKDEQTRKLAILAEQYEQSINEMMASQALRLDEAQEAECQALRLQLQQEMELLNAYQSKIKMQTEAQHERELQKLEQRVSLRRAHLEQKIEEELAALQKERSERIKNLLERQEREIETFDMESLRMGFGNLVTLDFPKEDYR
# [3] = molecular target: T3, ADP/ATP translocase 2 (Homo sapiens, UniProt P05141)
# T3 sequence (P05141 whole entry): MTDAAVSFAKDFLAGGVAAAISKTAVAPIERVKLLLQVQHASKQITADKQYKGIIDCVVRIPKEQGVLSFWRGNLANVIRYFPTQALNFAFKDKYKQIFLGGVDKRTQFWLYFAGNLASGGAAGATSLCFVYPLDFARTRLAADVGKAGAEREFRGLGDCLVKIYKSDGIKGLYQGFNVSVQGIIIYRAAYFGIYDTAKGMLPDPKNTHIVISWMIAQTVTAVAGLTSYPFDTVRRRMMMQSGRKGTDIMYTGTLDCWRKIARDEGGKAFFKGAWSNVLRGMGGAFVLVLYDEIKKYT
# [4] = molecular target: Structural maintenance of chromosomes protein 2 (Homo sapiens, UniProt O95347)
# [5] = molecular target: T4, Glycogen phosphorylase, brain form (Homo sapiens, UniProt P11216)
# T4 sequence (P11216 whole entry): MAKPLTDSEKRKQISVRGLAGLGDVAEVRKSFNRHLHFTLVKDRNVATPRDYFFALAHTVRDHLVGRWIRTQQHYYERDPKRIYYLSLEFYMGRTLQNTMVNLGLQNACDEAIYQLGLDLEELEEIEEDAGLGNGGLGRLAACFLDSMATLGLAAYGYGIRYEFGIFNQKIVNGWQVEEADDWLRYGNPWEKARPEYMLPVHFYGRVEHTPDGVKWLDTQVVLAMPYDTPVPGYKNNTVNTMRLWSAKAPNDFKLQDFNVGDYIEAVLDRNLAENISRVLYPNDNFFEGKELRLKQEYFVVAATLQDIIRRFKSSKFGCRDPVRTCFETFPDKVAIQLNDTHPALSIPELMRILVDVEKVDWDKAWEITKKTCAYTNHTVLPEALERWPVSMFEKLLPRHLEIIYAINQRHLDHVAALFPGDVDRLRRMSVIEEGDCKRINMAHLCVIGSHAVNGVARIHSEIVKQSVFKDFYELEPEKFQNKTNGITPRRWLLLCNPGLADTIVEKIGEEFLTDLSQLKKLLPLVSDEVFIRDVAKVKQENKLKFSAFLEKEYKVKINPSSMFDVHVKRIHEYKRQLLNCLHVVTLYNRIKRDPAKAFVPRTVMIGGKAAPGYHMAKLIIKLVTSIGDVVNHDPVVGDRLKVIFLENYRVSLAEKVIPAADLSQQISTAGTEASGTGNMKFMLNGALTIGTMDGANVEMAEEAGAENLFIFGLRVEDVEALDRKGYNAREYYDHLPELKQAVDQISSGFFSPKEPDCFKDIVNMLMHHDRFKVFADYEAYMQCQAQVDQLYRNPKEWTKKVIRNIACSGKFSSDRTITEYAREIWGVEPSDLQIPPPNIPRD
# [6] = molecular target: Serine/threonine-protein kinase MRCK gamma (Homo sapiens, UniProt Q6DT37)
# Also: in the data inactive means no Kd found up to 30 µM.
# Serine/threonine-protein kinase MRCK gamma, sequence (Q6DT37 whole entry): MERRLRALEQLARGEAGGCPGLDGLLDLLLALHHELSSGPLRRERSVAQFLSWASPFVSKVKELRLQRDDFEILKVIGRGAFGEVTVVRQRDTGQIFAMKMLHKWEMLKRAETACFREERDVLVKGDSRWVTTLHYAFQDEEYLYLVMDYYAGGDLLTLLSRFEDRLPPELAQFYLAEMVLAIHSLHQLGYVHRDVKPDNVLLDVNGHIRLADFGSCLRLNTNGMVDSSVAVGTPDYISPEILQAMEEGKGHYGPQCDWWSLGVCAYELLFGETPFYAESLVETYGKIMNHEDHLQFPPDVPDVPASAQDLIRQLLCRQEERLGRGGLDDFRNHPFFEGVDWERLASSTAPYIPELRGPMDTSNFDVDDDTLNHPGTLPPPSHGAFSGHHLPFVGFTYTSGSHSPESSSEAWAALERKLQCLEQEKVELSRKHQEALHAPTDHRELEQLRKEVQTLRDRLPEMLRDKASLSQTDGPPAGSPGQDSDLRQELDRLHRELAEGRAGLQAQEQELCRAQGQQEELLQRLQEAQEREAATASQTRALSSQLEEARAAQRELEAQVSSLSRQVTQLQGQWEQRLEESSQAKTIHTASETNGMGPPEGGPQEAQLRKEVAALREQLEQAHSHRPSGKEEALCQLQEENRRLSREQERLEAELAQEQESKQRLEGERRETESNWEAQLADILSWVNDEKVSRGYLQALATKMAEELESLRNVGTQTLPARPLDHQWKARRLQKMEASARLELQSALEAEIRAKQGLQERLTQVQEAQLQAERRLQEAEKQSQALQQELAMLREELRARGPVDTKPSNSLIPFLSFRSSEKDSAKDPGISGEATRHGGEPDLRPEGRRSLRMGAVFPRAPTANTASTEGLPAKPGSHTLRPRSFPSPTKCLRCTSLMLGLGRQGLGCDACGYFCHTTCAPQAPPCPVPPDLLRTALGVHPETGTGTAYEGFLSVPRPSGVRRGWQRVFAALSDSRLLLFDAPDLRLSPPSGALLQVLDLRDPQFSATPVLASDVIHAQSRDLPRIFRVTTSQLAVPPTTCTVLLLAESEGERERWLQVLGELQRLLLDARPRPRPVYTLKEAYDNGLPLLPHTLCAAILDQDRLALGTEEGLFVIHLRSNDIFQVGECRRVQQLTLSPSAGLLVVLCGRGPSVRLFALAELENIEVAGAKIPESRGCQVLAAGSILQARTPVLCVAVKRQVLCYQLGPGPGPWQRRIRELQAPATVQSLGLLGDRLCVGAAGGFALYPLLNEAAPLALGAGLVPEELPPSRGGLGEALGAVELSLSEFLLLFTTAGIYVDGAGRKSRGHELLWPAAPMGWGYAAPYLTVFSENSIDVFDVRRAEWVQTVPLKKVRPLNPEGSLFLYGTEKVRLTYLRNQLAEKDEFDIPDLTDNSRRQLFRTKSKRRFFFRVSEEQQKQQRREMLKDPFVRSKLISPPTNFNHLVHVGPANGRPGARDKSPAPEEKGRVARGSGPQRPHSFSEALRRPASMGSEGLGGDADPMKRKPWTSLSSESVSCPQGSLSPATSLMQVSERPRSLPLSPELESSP
# Structural maintenance of chromosomes protein 2, sequence (O95347 whole entry): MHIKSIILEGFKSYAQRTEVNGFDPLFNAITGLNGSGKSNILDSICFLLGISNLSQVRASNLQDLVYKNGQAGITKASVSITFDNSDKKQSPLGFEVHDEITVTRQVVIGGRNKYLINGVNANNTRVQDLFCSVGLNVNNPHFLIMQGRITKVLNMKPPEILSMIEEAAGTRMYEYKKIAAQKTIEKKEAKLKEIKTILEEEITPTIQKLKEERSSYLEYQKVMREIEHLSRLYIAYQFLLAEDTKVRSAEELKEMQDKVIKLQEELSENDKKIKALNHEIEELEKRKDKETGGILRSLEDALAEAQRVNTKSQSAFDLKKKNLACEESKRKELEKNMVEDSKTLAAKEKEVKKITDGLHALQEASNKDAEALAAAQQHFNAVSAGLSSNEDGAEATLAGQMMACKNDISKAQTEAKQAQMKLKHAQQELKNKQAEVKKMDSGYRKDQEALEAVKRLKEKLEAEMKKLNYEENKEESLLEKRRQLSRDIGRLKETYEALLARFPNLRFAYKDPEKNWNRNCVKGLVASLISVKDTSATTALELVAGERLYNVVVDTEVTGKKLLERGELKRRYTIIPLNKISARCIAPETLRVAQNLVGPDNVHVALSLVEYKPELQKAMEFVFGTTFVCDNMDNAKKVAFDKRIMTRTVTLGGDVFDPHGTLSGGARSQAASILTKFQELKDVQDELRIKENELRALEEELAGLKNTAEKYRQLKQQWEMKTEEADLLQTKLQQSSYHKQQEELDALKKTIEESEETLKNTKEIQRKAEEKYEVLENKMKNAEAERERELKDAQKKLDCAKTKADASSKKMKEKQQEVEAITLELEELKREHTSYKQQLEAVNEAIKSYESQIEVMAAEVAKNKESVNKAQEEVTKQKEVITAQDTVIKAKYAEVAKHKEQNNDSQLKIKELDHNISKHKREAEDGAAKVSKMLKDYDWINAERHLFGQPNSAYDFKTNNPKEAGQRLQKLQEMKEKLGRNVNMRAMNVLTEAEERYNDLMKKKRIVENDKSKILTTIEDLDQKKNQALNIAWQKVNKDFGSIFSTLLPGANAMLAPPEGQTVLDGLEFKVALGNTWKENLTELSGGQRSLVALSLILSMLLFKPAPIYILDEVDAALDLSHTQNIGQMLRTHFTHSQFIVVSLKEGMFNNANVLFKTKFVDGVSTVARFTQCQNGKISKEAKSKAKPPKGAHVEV
Kd [1],Kd [2],Kd [3],Kd [4],Kd [5],Kd [6],Compound
,,> 30 µM (inactive),> 30 µM (inactive),> 30 µM (inactive),,C[C@@H](Oc1cc(-n2cnc3ccc(CN4CCN(C)CC4)cc32)sc1C(N)=O)c1ccccc1C(F)(F)F [GSK-461364]
> 30 µM (inactive),> 30 µM (inactive),> 30 µM (inactive),> 30 µM (inactive),> 30 µM (inactive),,CCn1cc(-c2ccnc3[nH]c(-c4cccc(CN(C)C)c4)cc23)c(-c2ccc(NC(=O)N(C)C)cc2)n1 [GSK-1070916]
,,> 30 µM (inactive),> 30 µM (inactive),> 30 µM (inactive),> 30 µM (inactive),NC(=O)c1c(OCc2c(F)cc(Br)cc2F)nsc1NC(=O)NCCCCN1CCCC1 [OSI-632]
,2.4 µM (active),> 30 µM (inactive),> 30 µM (inactive),> 30 µM (inactive),> 30 µM (inactive),CC(=O)NCC(=O)N1[C@@H]2CC[C@H]1c1ccc(Nc3ncc(C(F)(F)F)c(NC4CCC4)n3)cc12 [PF-03814735]
,,> 30 µM (inactive),> 30 µM (inactive),> 30 µM (inactive),,O=C(NOCCO)c1cc(CN2OCCCC2=O)c(F)c(F)c1Nc1ccc(I)cc1F [RO-4987655]
2.41 µM (active),> 30 µM (inactive),> 30 µM (inactive),> 30 µM (inactive),> 30 µM (inactive),,CC(C)c1cc(CNc2nc(Nc3cc(C4CC4)[nH]n3)cc(N3CCN(C)CC3)n2)on1 [XL-228]

# Second part, the compound before the results:
Compound,Kd [1],Kd [2],Kd [3],Kd [4],Kd [5],Kd [6]
CCNC(=O)C#Cc1ccc2c(c1)NC(=O)/C2=C(\Nc1ccc(CN(C)C)cc1)c1ccccc1,> 30 µM (inactive),> 30 µM (inactive),> 30 µM (inactive),> 30 µM (inactive),> 30 µM (inactive),
COCc1c(-c2ccc(NC(=O)Nc3cc(C(F)(F)F)ccc3F)c(F)c2)c2c(N)ncnn2c1CN1CCOCC1,> 30 µM (inactive),> 30 µM (inactive),> 30 µM (inactive),> 30 µM (inactive),> 30 µM (inactive),
COc1cc(Nc2ncc3c(n2)-c2ccc(Cl)cc2C(c2c(F)cccc2OC)=NC3)ccc1C(=O)O [ALISERTIB],,> 30 µM (inactive),> 30 µM (inactive),> 30 µM (inactive),> 30 µM (inactive),> 30 µM (inactive)
O=C(Nc1c[nH]nc1-c1nc2cc(CN3CCOCC3)ccc2[nH]1)NC1CC1 [AT-9283],,> 30 µM (inactive),> 30 µM (inactive),> 30 µM (inactive),> 30 µM (inactive),> 30 µM (inactive)
CNC(=O)c1ccccc1Sc1ccc2c(/C=C/c3ccccn3)n[nH]c2c1 [AXITINIB],,,> 30 µM (inactive),> 30 µM (inactive),> 30 µM (inactive),
Cn1cc(C2=C(c3cn(C4CCN(Cc5ccccn5)CC4)c4ccccc34)C(=O)NC2=O)c2ccccc21 [ENZASTAURIN],,,> 30 µM (inactive),> 30 µM (inactive),> 30 µM (inactive),
Cc1nc2cc(-n3ncc(C(=O)c4cc5ccccc5[nH]4)c3N)ccc2[nH]1 [FGFR INHIBITOR DEBIO 1347],> 30 µM (inactive),> 30 µM (inactive),> 30 µM (inactive),> 30 µM (inactive),,> 30 µM (inactive)
Cc1[nH]c(/C=C2\C(=O)Nc3ccccc32)c(C)c1CCC(=O)O [ORANTINIB],,> 30 µM (inactive),> 30 µM (inactive),> 30 µM (inactive),> 30 µM (inactive),> 30 µM (inactive)
CCCCCCCCCCCCCCCCCCOP(=O)([O-])OC1CC[N+](C)(C)CC1 [PERIFOSINE],> 30 µM (inactive),> 30 µM (inactive),> 30 µM (inactive),> 30 µM (inactive),> 30 µM (inactive),
N#CC[C@H](C1CCCC1)n1cc(-c2ncnc3[nH]ccc23)cn1 [RUXOLITINIB],,,> 30 µM (inactive),> 30 µM (inactive),> 30 µM (inactive),
C[C@@H](N)c1ccc(C(=O)Nc2ccnc3[nH]ccc23)cc1 [Y-39983],> 30 µM (inactive),> 30 µM (inactive),> 30 µM (inactive),> 30 µM (inactive),> 30 µM (inactive),
